Test results from US20020028851A1, “Guanylhydrazones and their use to treat inflammatory conditions” (priority 1994, published 2002).
Read-outs that look alike come from different tables or passages of the source.

Key:
RAW 264.7 cells [1] = experiment: Whole cell inhibition assay for urea output; assay type: cell-based, murine; conditions: for urea % suppression of induced production: γIFN+LPS, 18 hours; for IC50: interpolated, γIFN+LPS-activated RAW 264.7, 18 hours, read-out: I.C.50 (in parenthesis), inhibition of urea production
Method: (§1) RAW 264.7 cells are plated in microculture wells at 1×10^6/ml in RPMI 1640 with 10% FBS and otherwise standard culture conditions and allowed to adhere for 5 hours. They are then activated with 25 U/ml γIFN and 0.1 μg/ml LPS in the presence of test inhibitors. The urea concentration present in the supernatant media, after 18 hours of culture, is determined by a colorimetric blood urea nitrogen diacetylmonoxime assay performed on an aliquot of the culture supernatant (Sigma Chem. Co., St. Louis, Mo.) and inhibition is expressed as the percentage urea compared to that of a parallel control culture treated identically except that the concentration of added inhibitor is zero.
(§2) Various concentrations of the test compounds are included in the media of the stimulated RAW 264.7 cells in culture. The concentration of urea and/or nitrite after 18 hours of activated culture is determined and compared to the uninhibited control value obtained from at least one parallel culture. The fractional reduction is calculated for each concentration of inhibitor and the IC50 (concentration giving 50% reduction) is interpolated. Compounds were dissolved in media with mild heat (60° C.). Those with limited solubility were dissolved in base. The concentration of stock solutions of those compounds which were not completely soluble was determined by OD280.

RAW 264.7 cells [2] = experiment: Whole cell inhibition assay for NO (nitrite) output; assay type: cell-based, murine; conditions: γIFN+LPS, 18 hours
Method: as §1
The production of nitrite is determined by assay of the same tissue culture supernatant by means of a calorimetric assay. Briefly, 4 parts of test solution containing 1% (w/v) sulfanilamide, 0.1% naphthylethylenediamine di-HCl (Griess Reagent), 2.5% H3PO4 and one part media are mixed, incubated for 10 minutes and the absorbance at 560 nm determined. The nitrite concentrations are interpolated from reference curves prepared using NaNO2.
as §2
(§3) This section describes experiments that measure the concentration of Compound No. 14 needed to inhibit arginine uptake and NO output. The techniques employed were described in section 7.1 supra.

RAW 264.7 cells [3] = experiment: Whole cell inhibition assay for arginine uptake; assay type: cell-based, murine; conditions: γIFN+LPS, 8 hours
Method: In the embodiment described in the working example herein, a test population of cells was cultured for about 3 hours so that the cells became firmly adherent. Various concentrations of the potential inhibitors were then added to parallel cultures. One hour later the macrophage stimulators, e.g. including, but not limited to LPS and γIFN, were added. Eighteen hours later the cells were washed in a warm balanced salt solution supplemented with glucose. Carrier-free radiolabelled arginine was added; after 5 minutes, active uptake of arginine was stopped by washing the cell three times with buffer, chilled to 0° C., containing 10 mM unlabeled arginine to displace any externally bound label. The contents of the washed cells are solubilized in 100 μl of formic acid and counted by standard techniques.
RAW 264.7 cells are plated in standard 96-well microculture plates at a concentration of 10^5/well and allowed to adhere for from 2 hours to overnight. The medium is then replaced with medium containing the compound to be tested. One hour later, the medium is supplemented so as to contain 25 U/ml γIFN and 0.1 μg/ml LPS and the cultures incubated a further. The cells are then rinsed twice in HEPES- buffered Krebs salt solution with 0.1% glucose. Carrier-free tetra-^3H-arginine is added to each well (2.5 μCi/well with specific activity of […]) and the active uptake of arginine is allowed to continue for a 5 minute period after which the cells are rapidly cooled to 0° C. by lavage with iced saline containing 10 mM unlabeled arginine to displace any externally bound label. The contents of the washed cells are solubilized in 100 Al of formic acid and counted by standard techniques. In subsequent experiments to determine the acitivity of the inhibitors, incubations were performed for 8 hours.
as §3

[4] = Solubility on preparing test solutions; assay type: physicochemical; conditions: preparation of test solutions
Method: as §2

## CC(=O)c1cccc(NC(CCCC(=NNC(=N)N)Nc2cccc(C(C)=O)c2)=NNC(=N)N)c1.Cl.Cl [Compound 12, N,N′-bis(3-acetylphenyl)pentanediamide bis(amidinohydrazone) dihydrochloride]
other
  melting point: 187 to 191 °C

## CC(=NNC(=N)N)c1ccc(NC(=O)Nc2ccc(C(C)=NNC(=N)N)cc2)cc1 [Compound 8, 4,4′-diacetyldiphenylurea bis(guanylhydrazone)]
RAW 264.7 cells [1]; dose 50 μM
  urea % suppression of induced production: 76%
RAW 264.7 cells [1]; dose 500 μM
  urea % suppression of induced production: 100%
RAW 264.7 cells [1]
  IC50: 50 µM

## CC(=NNC(=N)N)c1cc(NC(=O)c2ccccc2)cc(C(C)=NNC(=N)N)c1.Cl.Cl
other
  melting point: 268 to 272 °C

## CC(=O)c1ccc(NC(=O)NCCCN(CCCNC(=NNC(=N)N)Nc2ccc(C(C)=O)cc2)CCCNC(=NNC(=N)N)Nc2ccc(C(C)=NNC(=N)N)cc2)cc1.Cl.Cl.Cl (hydrate or solvate)
other
  melting point: 209 to 210 °C (dec.)

## CC(=NNC(=N)N)c1ccc(-n2ccnc2)cc1.Cl [Compound 6, 2-([(1H-imidazol-1-yl)-1,4-phenylene]ethylidyne)hydrazinecarboximidamide hydrochloride]
RAW 264.7 cells [1]; dose 50 μM
  urea % suppression of induced production: 0%
RAW 264.7 cells [1]; dose 100 μM
  urea % suppression of induced production: 40%
RAW 264.7 cells [1]; dose 1 mM
  urea % suppression of induced production: 100%
RAW 264.7 cells [1]
  IC50: 250 µM

## Cl.Cl.N=C(N)NN=C(CCC(=NNC(=N)N)c1ccccc1)c1ccccc1 [Compound 20, 2,2′-(1,4-diphenyl-1,4-butanediylidene)bishydrazinecarboximidamide dihydrochloride]
other
  melting point: 285 to 286 °C
RAW 264.7 cells [1]; Mus musculus, RAW264.7
  IC50: 300 µM
RAW 264.7 cells [1]; dose 10 μM
  urea % suppression of induced production: 16%
RAW 264.7 cells [1]; dose 50 μM
  urea % suppression of induced production: 19%
RAW 264.7 cells [1]; dose 200 μM
  urea % suppression of induced production: 38%
RAW 264.7 cells [1]; dose 400 μM
  urea % suppression of induced production: 100%
RAW 264.7 cells [2]; dose 10 μM
  no2/no3 % suppression of induced production: 0%
RAW 264.7 cells [2]; dose 50 μM
  no2/no3 % suppression of induced production: 0%
RAW 264.7 cells [2]; dose 200 μM
  no2/no3 % suppression of induced production: 15%
RAW 264.7 cells [2]; dose 400 μM
  no2/no3 % suppression of induced production: 84%

## CC(=O)c1cc(NC(=O)NCCN(CCNC(=NNC(=N)N)Nc2cc(C(C)=NNC(=N)N)cc(C(C)=NNC(=N)N)c2)CCNC(=NNC(=N)N)Nc2cc(C(C)=NNC(=N)N)cc(C(C)=NNC(=N)N)c2)cc(C(C)=O)c1.Cl.Cl.Cl.Cl.Cl.Cl.Cl (hydrate or solvate)
other
  melting point: 245 to 246 °C (dec.)

## CC(=O)c1cc(NC(=NNC(=N)N)NCC(C)CCCNC(=NNC(=N)N)Nc2cc(C(C)=NNC(=N)N)cc(C(C)=NNC(=N)N)c2)cc(C(C)=O)c1.Cl.Cl.Cl.Cl (stereo not shown) (hydrate or solvate)
other
  melting point: 258 to 259 °C

## COc1ccc(C=NNC(=N)N)cc1OCCCCCOc1cc(C=NNC(=N)N)ccc1OC.Cl.Cl
other
  melting point: 195 to 198 °C

## CC(=O)c1cc(NC(=O)NCCCN(CCCNC(=NNC(=N)N)Nc2cc(C(C)=NNC(=N)N)cc(C(C)=NNC(=N)N)c2)CCCNC(=NNC(=N)N)Nc2cc(C(C)=NNC(=N)N)cc(C(C)=NNC(=N)N)c2)cc(C(C)=O)c1.Cl.Cl.Cl.Cl.Cl.Cl.Cl (hydrate or solvate)
other
  melting point: 250 to 251 °C (dec.)

## CC(=O)c1cccc(NC(=NNC(=N)N)c2cc(C(=NNC(=N)N)Nc3cccc(C(C)=O)c3)cc(C(=NNC(=N)N)Nc3cccc(C(C)=O)c3)c2)c1.Cl.Cl.Cl (hydrate or solvate)
other
  melting point: 270 to 275 °C (dec.)

## CC(=NNC(=N)N)c1cccc(OCCOc2cccc(C(C)=NNC(=N)N)c2)c1.Cl.Cl [Compound 15, 2,2′-[1,2-ethanediylbis(oxy-3,1-phenyleneethylidyne)] bishydrazinecarboximidamide dihydrochloride]
RAW 264.7 cells [1]; dose 5 μM
  urea % suppression of induced production: 8%
RAW 264.7 cells [1]; dose 15.0 μM
  urea % suppression of induced production: 100%
RAW 264.7 cells [1]; dose 150 μM
  urea % suppression of induced production: 100%
RAW 264.7 cells [1]
  IC50: 10 µM
RAW 264.7 cells [3]; dose 5 μM
  arginine transport % suppression of induced peak: 10%
RAW 264.7 cells [3]; dose 15.0 μM
  arginine transport % suppression of induced peak: 35%
RAW 264.7 cells [3]; dose 150 μM
  arginine transport % suppression of induced peak: 100%
[4]
  Dissolved in (solubility): Not soluble;
RAW 264.7 cells [2]; dose 5 μM
  no2/no3 % suppression of induced production: 0%
RAW 264.7 cells [2]; dose 15.0 μM
  no2/no3 % suppression of induced production: 9%
RAW 264.7 cells [2]; dose 150 μM
  no2/no3 % suppression of induced production: 100%

## CC(=NNC(=N)N)c1cc(NC(=N)NC(=N)N)cc(C(C)=NNC(=N)N)c1.Cl.Cl.Cl
other
  melting point: 294 to 297 °C

## CC(=NNC(=N)N)c1ccc(NC(=O)Nc2cc(C(C)=NNC(=N)N)cc(C(C)=NNC(=N)N)c2)cc1.Cl.Cl.Cl [Compound 9, N-(4-acetylphenyl)-N′-(3,5-diacetylphenyl)urea tris(amidinohydrazone) trihydrochloride]
RAW 264.7 cells [1]; dose 1 μM
  urea % suppression of induced production: 0%
RAW 264.7 cells [1]; dose 10 μM
  urea % suppression of induced production: 60%
RAW 264.7 cells [1]; dose 25 μM
  urea % suppression of induced production: 100%
RAW 264.7 cells [1]
  IC50: 10 µM
RAW 264.7 cells [3]; dose 1 μM
  arginine transport % suppression of induced peak: 14%
RAW 264.7 cells [3]; dose 10 μM
  arginine transport % suppression of induced peak: 32%
RAW 264.7 cells [3]; dose 25 μM
  arginine transport % suppression of induced peak: 68%
RAW 264.7 cells [2]; dose 1 μM
  no2/no3 % suppression of induced production: 0%
RAW 264.7 cells [2]; dose 10 μM
  no2/no3 % suppression of induced production: 53%
RAW 264.7 cells [2]; dose 25 μM
  no2/no3 % suppression of induced production: 71%

## CC(=NNC(=N)N)c1cc(NC(=O)CCCC(=O)Nc2cc(C(C)=NNC(=N)N)cc(C(C)=NNC(=N)N)c2)cc(C(C)=NNC(=N)N)c1.Cl.Cl.Cl.Cl [Compound 13, N,N′-bis(3,5-diacetyl-phenyl)pentanediamide tetrakis(amidinohydrazone) tetrahydrochloride]
RAW 264.7 cells [1]; dose 10 μM
  urea % suppression of induced production: 45%
RAW 264.7 cells [1]; dose 25 μM, compound as precipitate
  urea % suppression of induced production: 77%
RAW 264.7 cells [1]; dose 25 μM, compound dissolved as solution
  urea % suppression of induced production: 100%
RAW 264.7 cells [1]; dose 50 μM
  urea % suppression of induced production: 87%
RAW 264.7 cells [1]; dose 500 μM
  urea % suppression of induced production: 100%
RAW 264.7 cells [1]
  IC50: 10 µM
RAW 264.7 cells [3]; dose 25 μM
  arginine transport % suppression of induced peak: 19%
RAW 264.7 cells [3]; dose 50 μM
  arginine transport % suppression of induced peak: 7%
RAW 264.7 cells [3]; dose 500 μM
  arginine transport % suppression of induced peak: 93%
RAW 264.7 cells [2]; dose 25 μM
  no2/no3 % suppression of induced production: 43%
RAW 264.7 cells [2]; dose 500 μM
  no2/no3 % suppression of induced production: 52%

## CC(=NNC(=N)N)c1ccc(O)c(O)c1.Cl [Compound 7, 2-[(3,4-dihydroxyphenyl)-ethylidyne]hydrazinecarboximidamide hydrochloride]
RAW 264.7 cells [1]; dose 10 μM
  urea % suppression of induced production: 23%
RAW 264.7 cells [1]; dose 100 μM
  urea % suppression of induced production: 35%
RAW 264.7 cells [1]; dose 1 mM
  urea % suppression of induced production: 40%
RAW 264.7 cells [1]; dose 2 mM
  urea % suppression of induced production: 55%
RAW 264.7 cells [1]; dose 10 mM
  urea % suppression of induced production: 100%
RAW 264.7 cells [1]
  IC50: 2000 µM

## CC(=NNC(=N)N)c1cc(C(C)=NNC(=N)N)cc(C(C)=NNC(=N)N)c1 [Compound 1, 1,3,5-triacetylbenzene tris(guanylhydrazone)]
RAW 264.7 cells [1]; Mus musculus, RAW264.7
  IC50: 10 µM
RAW 264.7 cells [1]; dose 10 μM
  urea % suppression of induced production: 60%
RAW 264.7 cells [1]; dose 25 μM
  urea % suppression of induced production: 100%
RAW 264.7 cells [3]; dose 1 μM
  arginine transport % suppression of induced peak: 0%
RAW 264.7 cells [3]; dose 10 μM
  arginine transport % suppression of induced peak: 20%
RAW 264.7 cells [3]; dose 25 μM
  arginine transport % suppression of induced peak: 40%
RAW 264.7 cells [2]; dose 10 μM
  no2/no3 % suppression of induced production: 58%
RAW 264.7 cells [2]; dose 25 μM
  no2/no3 % suppression of induced production: 72%

## CC(=O)c1ccc(NC(=O)NCCN(CCNC(=NNC(=N)N)Nc2ccc(C(C)=O)cc2)CCNC(=NNC(=N)N)Nc2ccc(C(C)=NNC(=N)N)cc2)cc1.Cl.Cl.Cl (hydrate or solvate)
other
  melting point: 224 to 225 °C (dec.)
